In patent publication US11198869B2, “Angelman syndrome antisense treatment” (The Texas A&M University System, priority 2017, dated 2021):

Experiments:
[1] = test system: UBE3A; assay: UBE3A steady state RNA (qRT-PCR) in GABAergic iPSC-derived neurons; type: cell-based, human; details: 10-point dose curve 1 nM-30 μM; 14 DIV to 20 DIV
[2] = test system: UBE3A; assay: as above; type: cell-based, human; details: for Difference, UBE3A RNA level: ASOs 10 μM; for effect on UBE3A RNA levels (in words): treated 29 DIV, RNA 35 DIV, 10-point dose curve; for increase of UBE3A RNA levels: 10 μM
Procedure: Human-specific ASOs were then designed to target this region, which included four ASOs targeting non-polymorphic regions in human and regions conserved (100%) with macaque (Rhesus and Cynomolgus) (Table 7 and FIG. 3A). Human induced pluripotent stem cell (iPSC) neural precursor cells were differentiated into GABAergic neurons for 14 DIV and then treated with a control ASO [ASO-C (10 μM, n=3)], Topotecan [Topo (1 μM, n=2)], and six ASOs targeting UBE3A-AS [ASO-1, ASO-2, ASO-3, ASO-4, ASO-5, and ASO-6 (10 μM, n=3)]. Additionally, an ASO targeting an intronic region downstream of SNORD109B was included (ASO-7). Six days post-treatment (20 DIV), RNA was isolated from the neurons and the steady state RNA levels of UBE3A-AS and UBE3A were estimated relative to the control treatment (FIG. 3B).
The effects of ASO-4 and Topotecan were then examined on the SNORD116, IPW, SNORD115, and SNORD109A RNAs, which are located upstream of the ASO-4 target region (see FIG. 1A).
The potency of ASO-4 was further examined in iPSC-derived neurons at a later time point in differentiation. GABAergic iPSC-derived neurons were treated at 59 DIV with a control ASO [ASO-C, 10 μM (n=3)] and ASO-4 [1 uM, 5 μM, and 10 μM (n=3)], and the steady state RNA levels of UBE3A-AS and UBE3A were measured as described above (FIG. 4G). Unlike neurons treated with ASO-4 at an earlier time point, the RNA levels of UBE3A and UBE3A-AS were highly inversely correlated (FIGS. 4H and 4I). For example, the effect of ASO-4 (10 μM) on UBE3A-AS RNA levels was similar between neurons treated at 14 and 59 DIV [20 DIV: UBE3A-AS: ↓87% (95% confidence intervals (CI): 80 to 95%); 65 DIV: ↓81% (95% CI: 74 to 88%)], whereas the effect of ASO-4 on UBE3A RNA levels was substantially larger in neurons treated at 59 DIV [20 DIV: ↑30% (95% CI: 16 to 44%); 65 DIV: ↑86% (95% CI: 59% to 113%)].
The potency of ASO-4 and ASO-6.1 was further examined in iPSC-derived neurons at a later time point in differentiation. GABAergic iPSC-derived neurons were treated at 29 DIV with a 10-point ½ log dose response curve of ASO-4 and ASO-6.1 [1 nM, 3 nM, 10 nM, 30 nM, 100 nM, 300 nM, 1 μM, 3 μM, 10 μM, and 30 μM (n=3)]. At 35 DIV, the IC50 and Emax of each ASO was estimated as described above (FIG. 5C-D and Table 14). The dose response curves of ASO-4 and ASO-6.1 were not similar (Parallelism test: F(3,172)=22.7, p<0.0001).
GABAergic and glutamatergic induced pluripotent stem cell (iPSC) derived neural precursor cells (NRC-100-010-001 and GNC-301-030-001, Cellular Dynamics International, Madison Wis.) were differentiated into neurons according to the manufactures protocol. Briefly, neural precursor cells were thawed and resuspended in chemically defined medium and added to sterile-culture plates coated with poly-D-lysine and laminin. The medium was replaced 24 hr after plating and then one-half of the medium was replaced every 3-5 days afterwards.
For cultured iPSC-derived neurons, RNA isolation and cDNA synthesis were performed using the Cell-to-CT kit (Thermo Fisher Scientific) in a lysate volume of 55 μl.
The steady state RNA levels of target transcripts were measured using TaqMan quantitative reverse-transcription PCR (qRT-PCR) assays. Total reaction volume was 10 uL, including 2 μl of cDNA, 1× Gene Expression Master mix (4369016, Thermo Fisher Scientific, Waltham, Mass.), and 1× TaqMan primer assay (Thermo Fisher Scientific). Cycling conditions were 2 minutes at 50° C., 10 minutes at 95° C., and 40 cycles of 15 seconds at 95° C. and 1 minute at 60° C., with readings taken at the 60° C. step of every cycle. Reactions were run on a BIO-RAD T1000 CFX96 thermocycler (Bio-Rad Laboratories, Hercules Calif.), with internal control (PPIA, Hs99999904_m1, Thermo Fisher Scientific) and target [UBE3A-AS, Hs01372957_m1; SNORD116-11, Hs04275268_gH; SNORD115, Hs04275288_gH; IPW, Hs03455409_s1; SNORD109A/B, AP47WVR (Thermo Fisher Scientific); UBE3A: forward […] (SEQ ID NO:500); reverse: […]

[3] = Topo 1 μM, 14 DIV to 20 DIV, labelled treatment minus ASO-3
[4] = Topo 1 μM, 14 DIV to 20 DIV, labelled treatment minus ASO-5
[5] = Topo 1 μM, 14 DIV to 20 DIV, labelled treatment minus ASO-6
[6] = Topo 1 μM, 14 DIV to 20 DIV, labelled treatment minus ASO-R
[7] = Topo 1 μM, treated 14 DIV, RNA 20 DIV, normalized to ASO-C, labelled treatment minus ASO-C
[8] = 14 DIV to 20 DIV, labelled treatment minus ASO-1
[9] = 14 DIV to 20 DIV, labelled treatment minus Topo (1 μM)

**Q.** CC[C@@]1(O)C(=O)OCc2c1cc1n(c2=O)Cc2cc3c(CN(C)C)c(O)ccc3nc2-1 [Topotecan, reference compound] was tested. Which “effect on total UBE3A RNA levels (in words)” value [1] did it give?
**A.** increased total UBE3A RNA levels in a dose-dependent manner, except for Topotecan at higher concentrations

**Q.** What about the “Difference, UBE3A RNA level” value [2, 3] of the same compound?
**A.** 0.05

**Q.** What about the “Difference, UBE3A RNA level” value [2, 4] of the same compound?
**A.** 0.02

**Q.** What about the “Difference, UBE3A RNA level” value [2, 5] of the same compound?
**A.** 0.02

**Q.** And the “Difference, UBE3A RNA level” value [2, 6]?
**A.** 0.18

**Q.** And the “Difference, UBE3A RNA level” value [2, 7]?
**A.** 0.18

**Q.** Which “effect on UBE3A RNA levels (in words)” value [2] does the source give for “C^O*U^O*G^O*G^O*t*g*t*c*a*a*c*a*a*g*C^O*C^O*A^O*A^O [ASO-6.1]” here?
**A.** increasing RNA levels in dose dependent manner

**Q.** With “G^O*U^O*A^O*C^O*U^O*c*t*t*c*c*t*c*a*g*t*C^O*A^O*U^O*C^O*C^O [ASO-2]” as the compound, how does the “Difference, UBE3A RNA level” value [2, 3] read?
**A.** 0.08

**Q.** And the “Difference, UBE3A RNA level” value [2, 4]?
**A.** 0.05

**Q.** What about the “Difference, UBE3A RNA level” value [2, 5] of the same compound?
**A.** 0.05

**Q.** And the “Difference, UBE3A RNA level” value [2, 6]?
**A.** 0.21

**Q.** And the “Difference, UBE3A RNA level” value [2, 7]?
**A.** 0.21

**Q.** What about the “Difference, UBE3A RNA level” value [2, 8] of the same compound?
**A.** 0.03

**Q.** And the “Difference, UBE3A RNA level” value [2, 9]?
**A.** 0.03

**Q.** With “U^O*A^O*G^O*A^O*A^O*t*g*g*c*a*c*a*t*c*t*C^O*U^O*U^O*G^O*G^O [ASO-4]” as the compound, how does the “effect on total UBE3A RNA levels (in words)” value [1] read?
**A.** increased total UBE3A RNA levels in a dose-dependent manner

**Q.** What about the “increase of UBE3A RNA levels” value ([2]; treated 14 DIV, RNA 20 DIV) of the same compound?
**A.** 30%

**Q.** And the “increase of UBE3A RNA levels” value ([2]; treated 59 DIV, RNA 65 DIV)?
**A.** 86%

**Q.** And the “Difference, UBE3A RNA level” value [2, 3]?
**A.** 0.17

**Q.** What about the “Difference, UBE3A RNA level” value [2, 4] of the same compound?
**A.** 0.13

**Q.** What about the “Difference, UBE3A RNA level” value [2, 5] of the same compound?
**A.** 0.13

**Q.** And the “Difference, UBE3A RNA level” value [2, 6]?
**A.** 0.29

**Q.** And the “Difference, UBE3A RNA level” value [2, 7]?
**A.** 0.30

**Q.** What about the “Difference, UBE3A RNA level” value [2, 8] of the same compound?
**A.** 0.11

**Q.** And the “Difference, UBE3A RNA level” value ([2]; 14 DIV to 20 DIV, labelled treatment minus ASO-2)?
**A.** 0.08

**Q.** What about the “Difference, UBE3A RNA level” value [2, 9] of the same compound?
**A.** 0.11

**Q.** What about the “effect on UBE3A RNA levels (in words)” value [2] of the same compound?
**A.** increasing RNA levels in dose dependent manner
